In PubChem BioAssay AID328 (DTP/NCI, 2004):
Values joined by “and” are separate entries in the source; they are usually repeats but may differ in a detail not shown here. Equal values may be shown once. Inconclusive results and toxic doses are left out.

Test system: BDF1 mice, P388 leukemia ip, median survival T/C
Experiment: NCI In Vivo Anticancer Drug Screen. Data for tumor model P388 Leukemia (intraperitoneal) in B6D2F1 (BDF1) mice
Conditions: endpoint: median survival time, higher = longer survival
Method in brief: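 Steps: implant the tumour, treat one group with compound and another with vehicle, record survival, then divide treated by control.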

[1] = dose: 200.0 mg/kg/injection, schedule: Q01DX009 (ip), vehicle: Klucel (hydroxypropylcellulose) (HPC)
[2] = dose: 100.0 mg/kg/injection, schedule: Q04DX003 (ip), vehicle: Klucel (hydroxypropylcellulose) (HPC)
[3] = dose: 200.0 mg/kg/injection, schedule: Q04DX003 (ip), vehicle: Klucel (hydroxypropylcellulose) (HPC)
[4] = dose: 100.0 mg/kg/injection, schedule: Q04DX003 (ip), vehicle: saline with Tween-80
[5] = dose: 200.0 mg/kg/injection, schedule: Q04DX003 (ip), vehicle: saline with Tween-80
[6] = dose: 400.0 mg/kg/injection, schedule: Q04DX003 (ip), vehicle: saline with Tween-80
[7] = dose: 100.0 mg/kg/injection, schedule: Q01DX009 (ip), vehicle: saline with Tween-80
[8] = dose: 200.0 mg/kg/injection, schedule: Q01DX009 (ip), vehicle: saline with Tween-80
[9] = dose: 400.0 mg/kg/injection, schedule: Q01DX009 (ip), vehicle: saline with Tween-80
[10] = dose: 0.08 mg/kg/injection, schedule: Q01DX009 (ip), vehicle: saline

In the case of `CC(=O)Nc1ccc(NC(=O)c2ccc([As](O)O)cc2)cc1`, the T/C (dose: 29.0 mg/kg/injection, schedule: Q04DX003 (ip), vehicle: Klucel (hydroxypropylcellulose) (HPC)) is reported as 109 % of control, the T/C (dose: 45.0 mg/kg/injection, schedule: Q01DX009 (ip), vehicle: saline) is reported as 102 % of control and the T/C (dose: 45.0 mg/kg/injection, schedule: Q04DX003 (ip), vehicle: Klucel (hydroxypropylcellulose) (HPC)) is reported as 113 % of control. For the same compound, the T/C (dose: 65.0 mg/kg/injection, schedule: Q01DX009 (ip), vehicle: saline) was 116 % of control, the T/C [1] was 170 % of control and the T/C (dose: 265.0 mg/kg/injection, schedule: Q01DX009 (ip), vehicle: Klucel (hydroxypropylcellulose) (HPC)) was 159 % of control.

With `O=C(O)/C(=C\c1ccncc1)c1cccc2ccccc12` the T/C (dose: 50.0 mg/kg/injection, schedule: Q04DX003 (ip), vehicle: Klucel (hydroxypropylcellulose) (HPC)) was 100 % of control, the T/C [2] was 100 % of control and the T/C [3] was 100 % of control.

With `Cc1ccc2nc3c(nc2c1)-c1cccc2cccc-3c12` the T/C [4] was 87 % of control, the T/C [5] was 91 % of control and the T/C [6] was 91 % of control.

In the case of `COc1cc2c(c(OC)c1OC)-c1ccc(OC)c(=O)cc1[C@@H](NC(C)=O)CC2`, the T/C (dose: 0.04 mg/kg/injection, schedule: Q01DX010 (ip), vehicle: saline) is reported as 122 % of control, the T/C (dose: 0.13 mg/kg/injection, schedule: Q01DX009 (ip), vehicle: water) is reported as 171 % of control and the T/C (dose: 0.16 mg/kg/injection, schedule: Q01DX010 (ip), vehicle: saline) is reported as 181 % of control. For the same compound, the T/C (dose: 0.25 mg/kg/injection, schedule: Q01DX009 (ip), vehicle: water) was 173 % of control, the T/C (dose: 0.32 mg/kg/injection, schedule: Q01DX010 (ip), vehicle: saline) was 154 % of control and 181 % of control and the T/C (dose: 0.64 mg/kg/injection, schedule: Q01DX010 (ip), vehicle: saline) was 163 % of control. The T/C (dose: 250.0 micrograms/kg/injection, schedule: Q01DX009 (ip), vehicle: saline) was 153 % of control, the T/C (dose: 500.0 micrograms/kg/injection, schedule: Q01DX009 (ip), vehicle: saline) was 235 % of control and the T/C (dose: 1000.0 micrograms/kg/injection, schedule: Q01DX009 (ip), vehicle: saline) was 222 % of control.

With `CCC(C(=O)OC)C1CCCCC1` (stereo not drawn) the T/C [7] was 107 % of control, the T/C [4] was 108 % of control and the T/C [8] was 111 % of control. The T/C [5] was 100 % of control, the T/C [9] was 103 % of control and the T/C [6] was 104 % of control.

For `COc1cc2c(c3c1c(=O)c1cc(OC(C)=O)ccc1n3C)C=CC(C)(C)O2`, the T/C (dose: 10.0 mg/kg/injection, schedule: Q01DX009 (ip), vehicle: Klucel (hydroxypropylcellulose) (HPC)) was 100 % of control, the T/C (dose: 20.0 mg/kg/injection, schedule: Q01DX009 (ip), vehicle: Klucel (hydroxypropylcellulose) (HPC)) was 98 % of control and the T/C (dose: 40.0 mg/kg/injection, schedule: Q01DX009 (ip), vehicle: Klucel (hydroxypropylcellulose) (HPC)) was 106 % of control.

For `O=C1C(N2CC2)=C(N2CC2)C(=O)C(N2CC2)=C1N1CC1`, the T/C (dose: 0.02 mg/kg/injection, schedule: Q01DX009 (ip), vehicle: saline) was 232 % of control and 307 % of control, the T/C (dose: 0.04 mg/kg/injection, schedule: Q01DX009 (ip), vehicle: saline) was 201 % of control and the T/C (dose: 0.04 mg/kg/injection, schedule: Q04DX003 (ip), vehicle: saline with Tween-80) was 114 % of control. For the same compound, the T/C (dose: 0.06 mg/kg/injection, schedule: Q04DX003 (ip), vehicle: saline with Tween-80) was 118 % of control, the T/C (dose: 0.07 mg/kg/injection, schedule: Q04DX003 (ip), vehicle: saline with Tween-80) was 109 % of control and the T/C [10] was 109 % of control. The T/C (dose: 0.11 mg/kg/injection, schedule: Q04DX003 (ip), vehicle: other) was 200 % of control, the T/C (dose: 0.15 mg/kg/injection, schedule: Q04DX003 (ip), vehicle: saline with Tween-80) was 185 % of control and the T/C (dose: 0.25 mg/kg/injection, schedule: Q04DX003 (ip), vehicle: other) was 186 % of control. For the same compound, the T/C (dose: 0.25 mg/kg/injection, schedule: Q04DX003 (ip), vehicle: saline with Tween-80) was 163 % of control, the T/C (dose: 6.6 micrograms/kg/injection, schedule: Q01DX009 (ip), vehicle: saline with Tween-80) was 150 % of control and the T/C (dose: 10.0 micrograms/kg/injection, schedule: Q01DX009 (ip), vehicle: saline with Tween-80) was 175 % of control. For the same compound, the T/C (dose: 20.0 micrograms/kg/injection, schedule: Q01DX009 (ip), vehicle: saline with Tween-80) was 164 % of control, the T/C (dose: 30.0 micrograms/kg/injection, schedule: Q01DX009 (ip), vehicle: saline with Tween-80) was 164 % of control and the T/C (dose: 31.3 micrograms/kg/injection, schedule: Q01DX009 (ip), vehicle: saline with Tween-80) was 156 % of control. The T/C (dose: 45.0 micrograms/kg/injection, schedule: Q01DX009 (ip), vehicle: saline with Tween-80) was 268 % of control, the T/C (dose: 62.5 micrograms/kg/injection, schedule: Q01DX009 (ip), vehicle: saline with Tween-80) was 87 % of control and the T/C (dose: 125.0 micrograms/kg/injection, schedule: Q01DX009 (ip), vehicle: saline with Tween-80) was 86 % of control.

In the case of `Cc1ccc(N2C(=O)CC(Sc3ccccc3N)C2=O)cc1` (stereo not drawn), the T/C (dose: 50.0 mg/kg/injection, schedule: Q01DX009 (ip), vehicle: Klucel (hydroxypropylcellulose) (HPC)) is reported as 105 % of control, the T/C (dose: 100.0 mg/kg/injection, schedule: Q01DX001 (ip), vehicle: saline) is reported as 100 % of control and the T/C (dose: 100.0 mg/kg/injection, schedule: Q01DX009 (ip), vehicle: Klucel (hydroxypropylcellulose) (HPC)) is reported as 105 % of control. The T/C [2] was 95 % of control, the T/C (dose: 200.0 mg/kg/injection, schedule: Q01DX001 (ip), vehicle: saline) was 90 % of control and the T/C [1] was 105 % of control. The T/C [3] was 87 % of control and the T/C (dose: 400.0 mg/kg/injection, schedule: Q01DX001 (ip), vehicle: saline) was 90 % of control.

With `O=C1c2ccccc2-c2c(Br)c3ccccc3c(=O)n21` the T/C (dose: 50.0 mg/kg/injection, schedule: Q01DX009 (ip), vehicle: saline with Tween-80) was 105 % of control, the T/C [7] was 105 % of control and the T/C [8] was 117 % of control. For the same compound, the T/C [9] was 101 % of control.

`CCCCNC(C)(C)CCl` was tested, and the T/C (dose: 1.56 mg/kg/injection, schedule: Q01DX009 (ip), vehicle: water) was 95 % of control, the T/C (dose: 3.12 mg/kg/injection, schedule: Q01DX009 (ip), vehicle: water) was 102 % of control and the T/C (dose: 3.12 mg/kg/injection, schedule: Q04DX003 (ip), vehicle: water) was 106 % of control. For the same compound, the T/C (dose: 6.25 mg/kg/injection, schedule: Q04DX003 (ip), vehicle: water) was 88 % of control, the T/C (dose: 12.5 mg/kg/injection, schedule: Q01DX009 (ip), vehicle: water) was 95 % of control and the T/C (dose: 12.5 mg/kg/injection, schedule: Q04DX003 (ip), vehicle: water) was 106 % of control. For the same compound, the T/C (dose: 25.0 mg/kg/injection, schedule: Q01DX009 (ip), vehicle: water) was 111 % of control, the T/C (dose: 25.0 mg/kg/injection, schedule: Q04DX003 (ip), vehicle: water) was 100 % of control and 106 % of control and the T/C (dose: 50.0 mg/kg/injection, schedule: Q01DX009 (ip), vehicle: water) was 104 % of control.

`NC(=O)c1ccc(NC(=O)/C=C/C(=O)Nc2ccc(C(N)=O)cn2)nc1` was tested, and the T/C [10] was 115 % of control, the T/C (dose: 0.17 mg/kg/injection, schedule: Q01DX009 (ip), vehicle: saline) was 120 % of control and the T/C (dose: 0.35 mg/kg/injection, schedule: Q01DX009 (ip), vehicle: saline) was 105 % of control. For the same compound, the T/C (dose: 0.7 mg/kg/injection, schedule: Q01DX009 (ip), vehicle: saline) was 103 % of control, the T/C (dose: 1.4 mg/kg/injection, schedule: Q01DX009 (ip), vehicle: saline) was 107 % of control and the T/C (dose: 1.65 mg/kg/injection, schedule: Q01DX009 (ip), vehicle: saline with Tween-80) was 113 % of control. The T/C (dose: 2.5 mg/kg/injection, schedule: Q01DX009 (ip), vehicle: saline with Tween-80) was 117 % of control, the T/C (dose: 3.75 mg/kg/injection, schedule: Q01DX009 (ip), vehicle: saline with Tween-80) was 94 % of control and the T/C (dose: 4.5 mg/kg/injection, schedule: Q04DX003 (ip), vehicle: saline) was 86 % of control. The T/C (dose: 5.62 mg/kg/injection, schedule: Q01DX009 (ip), vehicle: saline) was 104 % of control, the T/C (dose: 9.0 mg/kg/injection, schedule: Q04DX003 (ip), vehicle: saline) was 108 % of control and the T/C (dose: 18.0 mg/kg/injection, schedule: Q04DX003 (ip), vehicle: saline) was 100 % of control. For the same compound, the T/C (dose: 26.0 mg/kg/injection, schedule: Q04DX003 (ip), vehicle: saline) was 112 % of control and the T/C (dose: 40.0 mg/kg/injection, schedule: Q04DX003 (ip), vehicle: saline) was 108 % of control.
